Test results reported in ChEMBL document CHEMBL1212831, “Discovery of N-[(2S)-5-(6-fluoro-3-pyridinyl)-2,3-dihydro-1H-inden-2-yl]-2-propanesulfonamide, a novel clinical AMPA receptor positive modulator” (J Med Chem, 2010).
Converted amounts (≈) assume the structure as drawn. The source made the active and inactive calls. The rule behind the calls is not given here.

Columns and labels:
[1] = target: T1, Nuclear receptor subfamily 1 group I member 2 (Rattus norvegicus, UniProt Q9R1A7); assay: Activation of rat PXR
T1 sequence (Q9R1A7 whole entry): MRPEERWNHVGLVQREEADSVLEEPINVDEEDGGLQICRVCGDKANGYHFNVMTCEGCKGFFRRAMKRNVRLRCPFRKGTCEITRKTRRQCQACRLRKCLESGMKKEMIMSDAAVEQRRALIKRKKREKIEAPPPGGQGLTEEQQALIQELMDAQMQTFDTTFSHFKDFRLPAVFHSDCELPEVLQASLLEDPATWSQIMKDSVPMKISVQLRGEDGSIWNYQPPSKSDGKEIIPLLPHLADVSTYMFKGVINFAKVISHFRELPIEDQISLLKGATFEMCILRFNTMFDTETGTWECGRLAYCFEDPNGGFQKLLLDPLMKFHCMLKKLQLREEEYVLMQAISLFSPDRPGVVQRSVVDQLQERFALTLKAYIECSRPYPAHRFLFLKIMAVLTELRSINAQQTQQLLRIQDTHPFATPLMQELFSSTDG

Rattus norvegicus [2] = assay: Cognitive enhancing effect in po dosed Lister Hooded rat assessed as reversal of 24 hrs delay-induced retention deficit behavior by novel object recognition assay; format: functional; conditions: read-out: MED
[3] = Half life in Beagle dog at 0.5 mg/kg, po; format: ADME, organism-based, Canis lupus familiaris; design: dose 0.5 mg/kg, route oral; conditions: in vivo
[4] = Chemical stability of the compound; format: physicochemical
Rattus norvegicus [5] = assay: Antiamnesic activity in po dosed assessed as inhibition of Scopolamine-induced amnesic deficit administered 3 hrs before Scopolamine challenge by step-down passive avoidance test; format: functional, organism-based; conditions: Wistar
[6] = Equilibrium solubility of the compound in water at pH 2 to 10; format: physicochemical
[7] = Volume of distribution at steady state in Beagle dog at 0.125 mg/kg, iv and 0.5 mg/kg, po; format: ADME, organism-based, Canis lupus familiaris; conditions: in vivo, read-out: Vdss
[8] = Half life in Sprague-Dawley rat at 1 mg/kg, iv and 3 mg/kg, po; format: ADME, organism-based; conditions: in vivo
[9] = Cmax in Sprague-Dawley rat at 3 mg/kg, po; format: ADME, organism-based; design: dose 3 mg/kg, route oral; conditions: in vivo
[10] = Oral bioavailability in cynomolgus monkey at 0.5 mg/kg; format: ADME, organism-based, Macaca fascicularis; conditions: in vivo
[11] = target: T2, Nuclear receptor subfamily 1 group I member 2 (Homo sapiens, UniProt O75469); assay: Activation of human PXR
T2 sequence (O75469 whole entry): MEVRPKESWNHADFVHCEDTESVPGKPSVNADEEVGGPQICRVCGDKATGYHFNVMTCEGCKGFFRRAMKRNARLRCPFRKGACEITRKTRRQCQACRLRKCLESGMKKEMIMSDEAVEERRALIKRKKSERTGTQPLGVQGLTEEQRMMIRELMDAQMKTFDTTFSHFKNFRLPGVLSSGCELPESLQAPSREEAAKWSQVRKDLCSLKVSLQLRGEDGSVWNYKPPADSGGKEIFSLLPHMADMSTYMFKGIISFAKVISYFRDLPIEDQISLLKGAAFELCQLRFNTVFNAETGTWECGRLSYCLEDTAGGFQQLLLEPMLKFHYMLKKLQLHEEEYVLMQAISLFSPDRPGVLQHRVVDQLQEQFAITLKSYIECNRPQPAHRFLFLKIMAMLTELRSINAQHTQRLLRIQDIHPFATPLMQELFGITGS

[12] = Plasma protein binding in dog at 1 ug/ml after 6 hrs by equilibrium dialysis method; format: ADME, cell-free, Canis lupus familiaris; conditions: read-out: PPB (converted)
Rattus norvegicus [13] = assay: Antiamnesic activity in po dosed assessed as inhibition of amnesic deficit by step-down passive avoidance test; format: functional, organism-based; conditions: Wistar
[14] = Tmax in Sprague-Dawley rat at 3 mg/kg, po; format: ADME, organism-based; design: dose 3 mg/kg, route oral; conditions: in vivo
Cynomolgus monkey = assay: Cardiotoxicity in conscious cynomolgus monkey up to 2.5 mg/kg, po; format: toxicity, organism-based, Macaca fascicularis; design: dose 2.5 mg/kg, route oral; conditions: in vivo
[15] = Half life in Beagle dog at 0.125 mg/kg, iv; format: ADME, organism-based, Canis lupus familiaris; design: dose 0.125 mg/kg, route intravenous; conditions: in vivo
[16] = Half life in cynomolgus monkey at 0.5 mg/kg, po; format: ADME, organism-based, Macaca fascicularis; design: dose 0.5 mg/kg, route oral; conditions: in vivo
[17] = Apparent half life in human; format: ADME, organism-based; conditions: in vivo, read-out: beta t1/2 (converted)
Cytochrome P450 1A2 = target: T3, Cytochrome P450 1A2 (Homo sapiens, UniProt P05177)
T3 sequence (P05177 whole entry): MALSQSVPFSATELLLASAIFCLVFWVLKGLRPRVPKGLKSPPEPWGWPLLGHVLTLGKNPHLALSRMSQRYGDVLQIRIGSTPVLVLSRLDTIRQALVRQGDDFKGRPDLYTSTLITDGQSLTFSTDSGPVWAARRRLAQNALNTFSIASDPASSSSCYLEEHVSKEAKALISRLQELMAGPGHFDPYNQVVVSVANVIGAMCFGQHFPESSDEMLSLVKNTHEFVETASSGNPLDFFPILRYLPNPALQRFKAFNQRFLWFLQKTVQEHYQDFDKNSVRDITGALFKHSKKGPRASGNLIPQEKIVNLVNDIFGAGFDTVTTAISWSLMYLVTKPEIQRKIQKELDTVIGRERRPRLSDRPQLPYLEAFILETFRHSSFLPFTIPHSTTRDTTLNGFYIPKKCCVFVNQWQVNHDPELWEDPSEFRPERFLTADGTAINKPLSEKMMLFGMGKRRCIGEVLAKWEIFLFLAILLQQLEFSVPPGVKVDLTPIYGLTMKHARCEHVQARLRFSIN
Description: Inhibition of human CYP1A2 after 10 mins

Brain = assay: Brain tissue binding in rat at 1 ug/ml after 6 hrs by equilibrium dialysis method; format: ADME, tissue-based
[18] = Tmax in Beagle dog at 0.5 mg/kg, po; format: ADME, organism-based, Canis lupus familiaris; design: dose 0.5 mg/kg, route oral; conditions: in vivo
[19] = Equilibrium solubility of the compound in fasted simulated intestinal fluid at pH 2 to 10; format: physicochemical
[20] = Blood clearance in Beagle dog at 0.125 mg/kg, iv and 0.5 mg/kg, po; format: ADME, organism-based, Canis lupus familiaris
[21] = Plasma protein binding in rat at 1 ug/ml after 6 hrs by equilibrium dialysis method; format: ADME, cell-free; conditions: read-out: PPB (converted)
[22] = Equilibrium solubility of the compound in fed simulated intestinal fluid at pH 2 to 10; format: physicochemical
Homo sapiens = assay: Toxicity in human at 0.1 mg/kg QD for 28 days; format: organism-based; design: dose 0.1 mg/kg; conditions: in vivo, 672 h
[23] = Half life in Sprague-Dawley rat at 3 mg/kg, po; format: ADME, organism-based; design: dose 3 mg/kg, route oral; conditions: in vivo
[24] = Blood clearance in cynomolgus monkey at 0.125 mg/kg, iv and 0.5 mg/kg, po; format: ADME, organism-based, Macaca fascicularis
in vivo = conditions: rat, brain/blood
Description: Ratio of brain AUC (0 to t) to blood AUC (0 to t) in rat

Glutamate receptor 2 = Glutamate receptor 2 (Homo sapiens, UniProt P42262); assay: Activation of human recombinant GluR2 flip isoform expressed in HEK293 cells assessed as increase of glutamate-induced inward current at 30 uM by whole cell voltage-clamp electrophysiology assay; format: cell-based
Glutamate receptor 2, sequence (P42262 whole entry, canonical isoform): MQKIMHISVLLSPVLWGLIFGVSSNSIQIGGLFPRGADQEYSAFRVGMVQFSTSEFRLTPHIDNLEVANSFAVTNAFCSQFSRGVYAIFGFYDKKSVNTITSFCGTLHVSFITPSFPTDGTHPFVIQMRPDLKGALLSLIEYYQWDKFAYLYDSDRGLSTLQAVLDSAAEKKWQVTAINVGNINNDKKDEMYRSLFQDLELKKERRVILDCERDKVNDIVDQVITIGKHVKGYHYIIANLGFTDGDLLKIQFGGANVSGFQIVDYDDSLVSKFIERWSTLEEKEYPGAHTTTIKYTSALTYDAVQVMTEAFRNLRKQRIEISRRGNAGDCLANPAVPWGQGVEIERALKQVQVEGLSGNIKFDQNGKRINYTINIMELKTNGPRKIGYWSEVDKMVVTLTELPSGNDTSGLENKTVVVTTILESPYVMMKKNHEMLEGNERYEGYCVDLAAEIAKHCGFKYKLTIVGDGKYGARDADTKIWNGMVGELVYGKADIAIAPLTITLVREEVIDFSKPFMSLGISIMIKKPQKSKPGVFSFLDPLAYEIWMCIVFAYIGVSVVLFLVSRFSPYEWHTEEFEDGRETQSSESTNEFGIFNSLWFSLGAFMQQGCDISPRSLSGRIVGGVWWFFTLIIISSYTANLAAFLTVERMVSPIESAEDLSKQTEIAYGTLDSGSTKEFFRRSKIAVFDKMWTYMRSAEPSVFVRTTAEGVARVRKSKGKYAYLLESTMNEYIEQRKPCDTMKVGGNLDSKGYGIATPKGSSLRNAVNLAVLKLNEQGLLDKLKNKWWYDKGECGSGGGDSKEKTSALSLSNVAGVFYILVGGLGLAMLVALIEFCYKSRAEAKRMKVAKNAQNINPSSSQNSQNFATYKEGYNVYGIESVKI

[25] = Plasma protein binding in mouse at 1 ug/ml after 6 hrs by equilibrium dialysis method; format: ADME, cell-free; conditions: read-out: PPB (converted)
[26] = Volume of distribution at steady state in cynomolgus monkey at 0.125 mg/kg, iv and 0.5 mg/kg, po; format: ADME, organism-based, Macaca fascicularis; conditions: in vivo, read-out: Vdss
[27] = Half life in cynomolgus monkey at 0.125 mg/kg, iv; format: ADME, organism-based, Macaca fascicularis; design: dose 0.125 mg/kg, route intravenous; conditions: in vivo

Activity [1]: Not Active | half-life [3]: 17 h | Stability [4]: Stable | solubility thermodynamic [6]: 100 µg/mL (≈ 299 µM) | Vd [7]: 4.8 L/kg | half-life [8]: 5 h | Cmax [9]: 416 ng/mL | bioavailability [10]: 51% | Activity [11]: Not Active | fraction unbound at 6 h, 1 ug/ml [12]: 0.205 | Tmax [14]: 3 h | IC50 (Liver microsomes): 700 nM | half-life [15]: 16 h | half-life [16]: 24 h | half-life [17]: 107 h | IC50 (Cytochrome P450 1A2): > 10000 nM | Activity (Brain): 97.4% | Tmax [18]: 2 h | solubility thermodynamic [19]: 100 µg/mL (≈ 299 µM) | clearance [20]: 3.4 mL/min/kg | fraction unbound at 6 h, 1 ug/ml [21]: 0.133 | solubility thermodynamic [22]: 100 µg/mL (≈ 299 µM) | half-life [23]: 6.6 h | clearance [24]: 1.4 mL/min/kg | Kp (in vivo): 2.1 | Activity (Glutamate receptor 2): Active | fraction unbound at 6 h, 1 ug/ml [25]: 0.15 | Vd [26]: 1.8 L/kg | half-life [27]: 15 h
Structure (SMILES): CC(C)S(=O)(=O)N[C@H]1Cc2ccc(-c3ccc(F)nc3)cc2C1 [GSK-729327]
minimal effective dose (Rattus norvegicus [2]): 0.3 mg/kg | Activity (Rattus norvegicus [5]): Dose-dependent effect | inhibition (Rattus norvegicus [13]): inactive | Activity (Cynomolgus monkey): Non-toxic | Activity (Homo sapiens): Non-toxic
